In ChEMBL document CHEMBL2069247, “A highly sensitive fluorescent viscosity sensor” (Bioorg Med Chem Lett, 2012):

How the values were obtained:
HeLa [1] = assay: Drug uptake in human HeLa cells at 5 uM after 2 hrs by fluorescence microscopic analysis; assay type: ADME, cell-based
HeLa [2] = assay: Drug uptake in human HeLa cells measured immediately; assay type: ADME, cell-based

- Drug uptake (HeLa [1]): Active
- Drug uptake (HeLa [2]): Active
Structure (SMILES): Cn1ccc2ccc(-c3ccc4c(-c5ccccc5C(=O)O)c5ccc(=O)cc-5oc4c3)cc21
